The record followed here is publication PMC12153338, “Resistance to oxyimino-cephalosporins conferred by an alternative mechanism of hydrolysis by the Acinetobacter-derived cephalosporinase-33 (ADC-33), a class C β-lactamase present in carbapenem-resistant Acinetobacter baumannii (CRAb)” (mBio, 2025).

As usually defined, the MIC is the smallest concentration in the dilution series that meets the test's criterion for growth inhibition. For orientation: Km means the substrate concentration at which the rate is half of its maximum. As a reminder, the kcat is the number of substrate molecules converted per active site and unit of time at saturation.

The subject of assay [1] is ADC-218 in DH10B Escherichia coli. As to the kind of experiment: MIC by broth microdilution, ADC-218 in DH10B E. coli. Type of assay: cell-based. As to conditions: DH10B E. coli expressing ADC-218 (Adup) from pBCSK−, FDC in iron-depleted cation-adjusted MH broth, mode of triplicate. As for the experimental part:
(§1) Susceptibility testing to standard antibiotics was performed by broth microdilution according to 2024 Clinical and Laboratory Standards Institute (CLSI) guidelines ([38]). MICs for FDC were done in iron-depleted cation-adjusted Mueller-Hinton (MH) broth according to CLSI methods. All MICs were interpreted according to the 2024 CLSI guidelines ([38]). MICs are done in triplicate, and the mode MIC value is reported.
(§2) blaADC-7 pBCSK− was cloned and expressed in E. coli DH10B cells as previously described for MIC determinations ([3]). The pBCSK-non-inducible phagemid vector has a chloramphenicol resistance gene used to aid selection. All other blaADC variants were synthesized by GenScript according to the blaADC-7 pBCSK− strategy, cloning into the XbaI/BamHI sites of the pBCSK− vector ([5]).

Assay [2] relates to DH10B alone. In words: MIC by broth microdilution, DH10B alone. Type of assay: cell-based. The conditions noted are these: Escherichia coli; DH10B alone (control strain); FDC in iron-depleted cation-adjusted MH broth. As for the experimental part:
as §1, §2
For orientation: In broth dilution the organism is exposed to a series of concentrations in liquid medium.

For assay [3], the system named is ADC-143 in DH10B Escherichia coli. In words: MIC by broth microdilution, ADC-143 in DH10B E. coli. Type of assay: cell-based. The conditions noted are these: DH10B E. coli expressing ADC-143 (non-Adup) from pBCSK−, FDC in iron-depleted cation-adjusted MH broth, mode of triplicate. As for the experimental part: as §1, §2
In assay [4] the test system is ADC-217 in DH10B Escherichia coli. As to the kind of experiment: MIC by broth microdilution, ADC-217 in DH10B E. coli. Type of assay: cell-based. The conditions noted are these: DH10B E. coli expressing ADC-217 (non-Adup) from pBCSK−, FDC in iron-depleted cation-adjusted MH broth, mode of triplicate. As for the experimental part: as §1, §2
The test system of assay [5] is ADC-7 in DH10B Escherichia coli. As to the kind of experiment: MIC by broth microdilution, ADC-7 in DH10B E. coli. Type of assay: cell-based. As to conditions: DH10B E. coli expressing ADC-7 (non-Adup) from pBCSK−, FDC in iron-depleted cation-adjusted MH broth, mode of triplicate. The procedure:
as §1, §2

The test system of assay [6] is ADC-219 in DH10B Escherichia coli. As to the kind of experiment: MIC by broth microdilution, ADC-219 in DH10B E. coli. Type of assay: cell-based. The conditions noted are these: DH10B E. coli expressing ADC-219 (Adup) from pBCSK−, FDC in iron-depleted cation-adjusted MH broth, mode of triplicate. As for the experimental part: as §1, §2
Assay [7] deals with ADC-172 in DH10B Escherichia coli. In words: MIC by broth microdilution, ADC-172 in DH10B E. coli. Format: cell-based. The conditions noted are these: for MIC: Escherichia coli, DH10B E. coli expressing ADC-172 (Adup) from pBCSK−, FDC in iron-depleted cation-adjusted MH broth, mode of triplicate, read-out: MIC. The procedure: as §1, §2
Assay [8] relates to ADC-73 in DH10B Escherichia coli. As to the kind of experiment: MIC by broth microdilution, ADC-73 in DH10B E. coli. Type of assay: cell-based. The conditions noted are these: DH10B E. coli expressing ADC-73 (non-Adup) from pBCSK−, FDC in iron-depleted cation-adjusted MH broth, mode of triplicate. As for the experimental part: as §1, §2
In assay [9] the test system is ADC-33 in DH10B Escherichia coli. In words: MIC by broth microdilution, ADC-33 in DH10B E. coli. Type of assay: cell-based. As to conditions: DH10B E. coli expressing ADC-33 (Adup) from pBCSK−, FDC in iron-depleted cation-adjusted MH broth, mode of triplicate. As for the experimental part: as §1, §2
For assay [10], the system named is DH10B Escherichia coli pBCSK− no insert. As to the kind of experiment: MIC by broth microdilution, DH10B E. coli with pBCSK− no insert. As to conditions: DH10B E. coli with pBCSK− no insert (control strain), FDC in iron-depleted cation-adjusted MH broth. Type of assay: cell-based. As for the experimental part: as §1, §2
For assay [11], the system named is ADC-30 in DH10B Escherichia coli. As to the kind of experiment: MIC by broth microdilution, ADC-30 in DH10B E. coli. Format: cell-based. As to conditions: DH10B E. coli expressing ADC-30 (non-Adup) from pBCSK−, FDC in iron-depleted cation-adjusted MH broth, mode of triplicate. As for the experimental part:
as §1, §2

Assay [12] concerns the target ADC-217 (Acinetobacter baumannii, UniProt Q6DRA1, V286E, form not given). As to the kind of experiment: Steady-state hydrolysis kinetics, ADC-217. As to conditions: hydrolysis by ADC-217. Type of assay: biochemical. As for the experimental part: Steady-state kinetic parameters were determined by combining pure enzyme with antibiotic substrates in 50 mM NaH2PO4, pH 7.4, at room temperature. Changes in absorbance were measured on the Cary 60 UV−Vis spectrophotometer (Agilent Technologies) and converted to velocity using the change in extinction coefficient specific to nitrocefin (NCF) (ε482 = 17,400 M^−1·cm^−1), CAZ (ε260 8,660 M^−1·cm^−1), and cefiderocol (ε259 9,430 M^−1·cm^−1). The concentration of enzyme ranged from 0.1 to 1.0 µM, and all kinetic experiments were performed at least in triplicate. Initial velocities were fitted to the Michaelis-Menten equation, yielding kcat and KM values. The standard error for kcat/KM values was generated by factoring in the larger of the proportional standard errors for the individual kcat value and the KM value. For ADC/substrate combinations in which the KM was too large to accurately determine both kcat and KM values, the initial velocities at kcat/KM values were calculated from linear fits of vo in low [S] ranges (<0.08 * KM).

In assay [13] the test system is ADC variants in DH10B Escherichia coli. As to the kind of experiment: MIC, statements across ADC variants in E. coli. Format: cell-based. As for the experimental part: as §1, §2

Values after ≈ are worked out from the molar mass of the structure shown.

Take `CO/N=C(\C(=O)N[C@@H]1C(=O)N2C(C(=O)O)=C(COC(C)=O)CS[C@H]12)c1csc(N)n1` [CTX, cefotaxime]: the MIC turned out to be 256 µg/mL (≈ 562 µM) in assay [1]; 0.12 µg/mL (≈ 0.263 µM) in [2]; 32 µg/mL (≈ 70.3 µM) in assay [3]; 64 µg/mL (≈ 141 µM) in assay [4]; 64 µg/mL (≈ 141 µM) in assay [5]; 32 µg/mL (≈ 70.3 µM) in assay [6]. Also, the MIC in assay [7] worked out at 32 µg/mL (≈ 70.3 µM); in assay [8], 32 µg/mL (≈ 70.3 µM); in [9], 64 µg/mL (≈ 141 µM); in assay [10] it was 0.06 µg/mL (≈ 0.132 µM); in assay [11], 32 µg/mL (≈ 70.3 µM).

In the case of `C[C@@H](O)[C@H]1C(=O)N2C(C(=O)O)=C(SCCN=CN)C[C@H]12` [IPM, imipenem], the lowest concentration to inhibit growth in assay [10] (MIC) was 0.25 µg/mL (≈ 0.835 µM).

As to `C[C@H]1[C@H](NC(=O)/C(=N\OC(C)(C)C(=O)O)c2csc(N)n2)C(=O)N1S(=O)(=O)O` [ATM, aztreonam], the MIC came out at 256 µg/mL (≈ 588 µM) in assay [1]; 0.25 µg/mL (≈ 0.574 µM) in assay [2]; 16 µg/mL (≈ 36.7 µM) in [3]; 8 µg/mL (≈ 18.4 µM) in [4]; 8 µg/mL (≈ 18.4 µM) in assay [5]; 32 µg/mL (≈ 73.5 µM) in assay [6]. Also, the MIC in assay [7] was determined as 32 µg/mL (≈ 73.5 µM); in [8], 2 µg/mL (≈ 4.59 µM); in [9], 64 µg/mL (≈ 147 µM); in assay [10] it was 0.12 µg/mL (≈ 0.276 µM); in assay [11], 8 µg/mL (≈ 18.4 µM).

For `CC(=O)OCC1=C(C(=O)O)N2C(=O)[C@@H](NC(=O)Cc3cccs3)[C@H]2SC1` [CEF, cephalothin], the MIC was 2050 µg/mL (≈ 5170 µM) in assay [1]; 16 µg/mL (≈ 40.4 µM) in [2]; 2050 µg/mL (≈ 5170 µM) in [3]; 2050 µg/mL (≈ 5170 µM) in assay [4]; 4100 µg/mL (≈ 10300 µM) in assay [5]; 1020 µg/mL (≈ 2580 µM) in [6]. For the same compound, the MIC in [7] worked out at 2050 µg/mL (≈ 5170 µM); in [8] it was 2050 µg/mL (≈ 5170 µM); in assay [9] it was 2050 µg/mL (≈ 5170 µM); in assay [10] it was 8 µg/mL (≈ 20.2 µM); in assay [11], 4100 µg/mL (≈ 10300 µM).

Take `CO/N=C(\C(=O)N[C@@H]1C(=O)N2C(C(=O)[O-])=C(C[N+]3(C)CCCC3)CS[C@H]12)c1csc(N)n1` [FEP, cefepime]: the MIC in [1] worked out at 4 µg/mL (≈ 8.32 µM); in assay [2], 0.06 µg/mL (≈ 0.125 µM); in [3], 0.25 µg/mL (≈ 0.52 µM); in [4] it was 16 µg/mL (≈ 33.3 µM); in assay [5], 0.5 µg/mL (≈ 1.04 µM); in assay [6], 0.125 µg/mL (≈ 0.26 µM). Further, the MIC was found to be 8 µg/mL (≈ 16.6 µM) in [7]; 0.25 µg/mL (≈ 0.52 µM) in [8]; 1 µg/mL (≈ 2.08 µM) in [9]; 0.03 µg/mL (≈ 0.0624 µM) in [10]; 0.5 µg/mL (≈ 1.04 µM) in assay [11]. Moreover, in assay [12], the Km was 155 µM. Further, the catalytic constant (kcat) in assay [12] is 30.2 s⁻¹. Further, the “fold increase in MIC from ADC-30 to ADC-172” value in assay [7] (DH10B E. coli, ADC-172 versus ADC-30) is at most 16 fold.

Regarding `Cn1c(N)c(NC(=O)NCCN)c[n+]1CC1=C(C(=O)O)N2C(=O)[C@@H](NC(=O)/C(=N\OC(C)(C)C(=O)[O-])c3nsc(N)n3)[C@H]2SC1` [TOL, ceftolozane], the MIC is 512 µg/mL (≈ 768 µM) in assay [1]; 0.5 µg/mL (≈ 0.75 µM) in [2]; at least 512 µg/mL in [13]; 16 µg/mL (≈ 24 µM) in assay [3]; 16 µg/mL (≈ 24 µM) in assay [4]; 8 µg/mL (≈ 12 µM) in [5]. Moreover, the MIC turned out to be 128 µg/mL (≈ 192 µM) in [6]; 512 µg/mL (≈ 768 µM) in [7]; 2 µg/mL (≈ 3 µM) in [8]; 512 µg/mL (≈ 768 µM) in assay [9]; 0.5 µg/mL (≈ 0.75 µM) in assay [10]; 4 µg/mL (≈ 6 µM) in assay [11].
